Data published in patent US20260265195A1, “SARM1 MODULATORS, PREPARATIONS, AND USES THEREOF” (SIRONAX LTD, priority 2022, published 2026).

Biological target: T1, SARM1 (50-724) (Homo sapiens, UniProt Q6SZW1)
T1 construct: Purified SARM1 (50-724) with a final concentration of 2 nM
T1 sequence (Q6SZW1 50-724): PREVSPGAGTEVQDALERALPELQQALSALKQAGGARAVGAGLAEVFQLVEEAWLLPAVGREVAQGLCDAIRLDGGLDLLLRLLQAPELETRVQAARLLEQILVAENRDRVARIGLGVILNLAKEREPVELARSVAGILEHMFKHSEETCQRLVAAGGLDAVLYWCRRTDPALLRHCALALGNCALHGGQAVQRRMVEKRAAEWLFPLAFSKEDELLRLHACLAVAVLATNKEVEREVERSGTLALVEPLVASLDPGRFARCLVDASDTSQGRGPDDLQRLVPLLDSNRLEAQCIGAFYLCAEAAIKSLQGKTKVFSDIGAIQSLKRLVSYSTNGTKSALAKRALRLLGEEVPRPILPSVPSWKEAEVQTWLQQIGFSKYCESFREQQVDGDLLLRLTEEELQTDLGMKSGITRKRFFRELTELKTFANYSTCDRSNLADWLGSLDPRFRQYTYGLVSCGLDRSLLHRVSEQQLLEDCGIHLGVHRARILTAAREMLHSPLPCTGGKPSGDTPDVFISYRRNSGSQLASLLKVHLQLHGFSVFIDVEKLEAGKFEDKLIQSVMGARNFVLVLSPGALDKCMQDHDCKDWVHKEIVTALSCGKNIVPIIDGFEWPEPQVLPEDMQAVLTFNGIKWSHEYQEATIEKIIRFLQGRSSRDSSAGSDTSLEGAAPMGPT
Assay: SARM1 (50-724) enzymatic assay (NMN-activated NAD+ hydrolysis, LC-MS/MS readout)
Format: biochemical
Conditions: purified SARM1 (50-724) 2 nM, 200 μM NMN activator, 100 μM NAD+ substrate, 1 h at room temperature, read-out: IC50 (SARM1 inhibitory activity)
Procedure, shortened: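 NMN-activated NAD+ hydrolysis: compound pre-incubated 15 min at room temperature with 2 nM SARM1 (50-724) at 1% DMSO in DPBS; 100 μM NAD+ plus 200 μM NMN added and reacted 1 h at RT. Acetonitrile quench, LC-MS/MS readout.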

Row | SMILES | IC50
1 | O=C(c1nc2cc(C(F)(F)F)ccc2[nH]1)N(Cc1cc[nH]n1)c1cccc(Cl)c1Cl [Compound 132, N-((1H-pyrazol-3-yl)methyl)-N-(2,3-dichlorophenyl)-5-(trifluoromethyl)-1H-benzo[d]imidazole-2-carboxamide] | ≤ 100 nM
2 | Cc1c(Cl)cncc1N(CC(F)(F)CO)C(=O)c1nc2cc(C(F)(F)F)ccc2[nH]1 [Compound 133, N-(5-chloro-4-methylpyridin-3-yl)-N-(2,2-difluoro-3-hydroxypropyl)-5-(trifluoromethyl)-1H-benzo[d]imidazole-2-carboxamide] | ≤ 100 nM
3 | O=C(c1nc2cc(C(F)(F)F)ccc2[nH]1)N(CCC1CNC1)c1cccc(Cl)c1Cl [Compound 134, N-(2-(azetidin-3-yl)ethyl)-N-(2,3-dichlorophenyl)-5-(trifluoromethyl)-1H-benzo[d]imidazole-2-carboxamide] | 101 to 500 nM
4 | O=C(c1nc2cc(C(F)(F)F)ccc2[nH]1)N(CC1(F)COC1)c1cccc(Cl)c1Cl [Compound 135, N-(2,3-dichlorophenyl)-N-((3-fluorooxetan-3-yl)methyl)-5-(trifluoromethyl)-1H-benzo[d]imidazole-2-carboxamido] | ≤ 100 nM
5 | Cc1c(Cl)cccc1N(CCO)C(=O)c1nc2cc(C(F)(F)F)ccc2[nH]1 [Compound 137, N-(3-chloro-2-methylphenyl)-N-(2-hydroxyethyl)-5-(trifluoromethyl)-1H-benzo[d]imidazole-2-carboxamide] | ≤ 100 nM
6 | Cc1ccnc(N(CCO)C(=O)c2nc3cc(C(F)(F)F)ccc3[nH]2)c1Cl [Compound 138, N-(3-chloro-4-methylpyridin-2-yl)-N-(2-hydroxyethyl)-5-(trifluoromethyl)-1H-benzo[d]imidazole-2-carboxamide] | 101 to 500 nM
7 | Cn1cc(-c2ccc3[nH]c(C(=O)N(CCO)c4cccc(Cl)c4Cl)nc3c2)cn1 [Compound 139, N-(2,3-dichlorophenyl)-N-(2-hydroxyethyl)-5-(1-methyl-1H-pyrazol-4-yl)-1H-benzo[d]imidazole-2-carboxamide] | 101 to 500 nM
8 | COC(=O)CN(C(=O)c1nc2cc(C(F)(F)F)ccc2[nH]1)c1cccc(Cl)c1Cl [Compound 140, Methyl N-(2,3-dichlorophenyl)-N-(5-(trifluoromethyl)-1H-benzo[d]imidazole-2-carbonyl)glycinate] | ≤ 100 nM
9 | NC(=O)CN(C(=O)c1nc2cc(C(F)(F)F)ccc2[nH]1)c1cccc(Cl)c1Cl [Compound 141, N-(2-amino-2-oxoethyl)-N-(2,3-dichlorophenyl)-5-(trifluoromethyl)-1H-benzo[d]imidazole-2-carboxamide] | ≤ 100 nM
10 | Cc1c(-c2ccn[nH]2)ccc2[nH]c(C(=O)N(CC3COC3)c3cccc(Cl)c3Cl)nc12 [Compound 142] | ≥ 1000 nM
11 | O=C(c1nc2c(Cl)c(-c3ccn[nH]3)ccc2[nH]1)N(CC1COC1)c1cccc(Cl)c1Cl [Compound 143] | ≥ 1000 nM
12 | Cc1cc(-c2ccc3[nH]c(C(=O)N(CCO)c4cccc(Cl)c4Cl)nc3c2)sn1 [Compound 144] | 101 to 500 nM
13 | Cc1c(Cl)ccnc1N(CCO)C(=O)c1nc2cc(C(F)(F)F)ccc2[nH]1 [Compound 145, N-(4-chloro-3-methylpyridin-2-yl)-N-(2-hydroxyethyl)-5-(trifluoromethyl)-1H-benzo[d]imidazole-2-carboxamide] | 101 to 500 nM
14 | CC(=O)NCCN(C(=O)c1nc2cc(C(F)(F)F)ccc2[nH]1)c1cccc(Cl)c1Cl [Compound 146, N-(2-acctamidoethyl)-N-(2,3-dichlorophenyl)-5-(trifluoromethyl)-1H-benzo[d]imidazole-2-carboxamide] | ≤ 100 nM
15 | CS(=O)(=O)NCCN(C(=O)c1nc2cc(C(F)(F)F)ccc2[nH]1)c1cccc(Cl)c1Cl [Compound 147, N-(2,3-dichlorophenyl)-N-(2-(methylsulfonamido)ethyl)-5-(trifluoromethyl)-1H-benzo[d]imidazole-2-carboxamide] | ≤ 100 nM
16 | Cc1c(Cl)cncc1N(CCO)C(=O)c1nc2cc(C(F)(F)F)ccc2[nH]1 [Compound 148, N-(5-chloro-4-methylpyridin-3-yl)-N-(2-hydroxyethyl)-5-(trifluoromethyl)-1H-benzo[d]imidazole-2-carboxamide] | ≤ 100 nM
17 | O=C(c1nc2cc(C(F)(F)F)ccc2[nH]1)N(CCN1CCC1)c1cccc(Cl)c1Cl [Compound 149, N-(2-(azetidin-1-yl)ethyl)-N-(2,3-dichlorophenyl)-6-(trifluoromethyl)-1H-benzo[d]imidazole-2-carboxamide] | 101 to 500 nM
18 | CC(C)(O)c1ccc2[nH]c(C(=O)N(CCO)c3cccc(Cl)c3Cl)nc2c1 [Compound 150, N-(2,3-dichlorophenyl)-N-(2-hydroxyethyl)-5-(2-hydroxypropan-2-yl)-1H-benzo[d]imidazole-2-carboxamide] | ≤ 100 nM

Row | SMILES | IC50
19 | Cc1cccc(N(CCO)C(=O)c2nc3cc(C(F)(F)F)ccc3[nH]2)c1Cl [Compound 151, N-(2-chloro-3-methylphenyl)-N-(2-hydroxyethyl)-5-(trifluoromethyl)-1H-benzo[d]imidazole-2-carboxamide] | ≤ 100 nM
20 | Cc1ccc(Cl)c(N(C)C(=O)c2nc3cc(C(F)(F)F)ccc3[nH]2)c1Cl [Compound 152, N-(2,6-dichloro-3-methylphenyl)-N-methyl-5-(trifluoromethyl)-1H-benzo[d]imidazole-2-carboxamide] | ≤ 100 nM
21 | Cc1csc(-c2ccc3[nH]c(C(=O)N(CCO)c4cccc(Cl)c4Cl)nc3c2)n1 [Compound 153] | 101 to 500 nM
22 | Cc1c[nH]c(-c2ccc3[nH]c(C(=O)N(CCO)c4cccc(Cl)c4Cl)nc3c2)n1 [Compound 154] | ≥ 1000 nM
23 | Cc1ccnc(N(CC(F)(F)CO)C(=O)c2nc3cc(C(F)(F)F)ccc3[nH]2)c1Cl [Compound 156, N-(3-chloro-4-methylpyridin-2-yl)-N-(2,2-difluoro-3-hydroxypropyl)-5-(trifluoromethyl)-1H-benzo[d]imidazole-2-carboxamide] | 101 to 500 nM
24 | O=C(c1nc2cc(C(F)(F)F)ccc2[nH]1)N(CCO)c1cccc(F)c1Cl [Compound 157, N-(2-chloro-3-fluorophenyl)-N-(2-hydroxyethyl)-5-(trifluoromethyl)-1H-benzo[d]imidazole-2-carboxamide] | ≤ 100 nM
25 | Cc1c(F)cccc1N(CCO)C(=O)c1nc2cc(C(F)(F)F)ccc2[nH]1 [Compound 158, N-(3-fluoro-2-methylphenyl)-N-(2-hydroxyethyl)-5-(trifluoromethyl)-1H-benzo[d]imidazole-2-carboxamide] | ≤ 100 nM
26 | O=C(c1nc2cc(C(F)(F)F)ccc2[nH]1)N(CCO)c1c(Cl)cccc1Cl [Compound 159, N-(2,6-dichlorophenyl)-N-(2-hydroxyethyl)-5-(trifluoromethyl)-1H-benzo[d]imidazole-2-carboxamide] | 101 to 500 nM
27 | Cc1ccc2[nH]c(C(=O)N(CCO)c3cccc(Cl)c3Cl)nc2c1Br [Compound 160] | ≤ 100 nM
28 | O=C(c1nc2cc(-c3cscn3)ccc2[nH]1)N(CCO)c1cccc(Cl)c1Cl [Compound 161] | ≤ 100 nM
29 | O=C(c1nc2cc(C(F)(F)F)c(Cl)cc2[nH]1)N(CCO)c1cccc(Cl)c1Cl [Compound 163] | 101 to 500 nM
30 | Cc1ccc2[nH]c(C(=O)N(CCO)c3cccc(Cl)c3Cl)nc2c1-c1cc[nH]c(=O)c1 [Compound 164] | 101 to 500 nM
31 | O=C1CCCN1CCN(C(=O)c1nc2ccc(C(F)(F)F)cc2[nH]1)c1cccc(Cl)c1Cl [Compound 165, N-(2,3-dichlorophenyl)-N-(2-(2-oxopyrrolidin-1-yl)ethyl)-6-(trifluoromethyl)-1H-benzo[d]imidazole-2-carboxamide] | 501 to 1000 nM
32 | [2H]C([2H])([2H])N(C(=O)c1nc2cc(C(F)(F)F)ccc2[nH]1)c1cncc(Cl)c1C [Compound 166, N-(5-chloro-4-methylpyridin-3-yl)-N-(methyl-d3)-5-(trifluoromethyl)-1H-benzo[d]imidazole-2-carboxamido] | ≤ 100 nM
33 | COC1CN(CCN(C(=O)c2nc3cc(C(F)(F)F)ccc3[nH]2)c2cccc(Cl)c2Cl)C1 [Compound 167, N-(2,3-dichlorophenyl)-N-(2-(3-methoxyazetidin-1-yl)ethyl)-5-(trifluoromethyl)-1H-benzo[d]imidazole-2-carboxamide] | ≤ 100 nM
34 | CC(C)(O)CN(C(=O)c1nc2cc(C(F)(F)F)ccc2[nH]1)c1cccc(Cl)c1Cl [Compound 168, N-(2,3-dichlorophenyl)-N-(2-hydroxy-2-methylpropyl)-5-(trifluoromethyl)-1H-benzo[d]imidazole-2-carboxamide] | ≤ 100 nM
35 | CC(O)CN(C(=O)c1nc2cc(C(F)(F)F)ccc2[nH]1)c1cccc(Cl)c1Cl (stereo not drawn) [Compound 170] | ≤ 100 nM
36 | O=C(c1nc2cc(CO)ccc2[nH]1)N(CCO)c1cccc(Cl)c1Cl [Compound 171] | 101 to 500 nM
